What was measured:
Assay in all cases: Test F preemergence test
Settings in all cases: scale 0 to 100
pitted morningglory = type: in vivo, Ipomoea lacunosa
Summary of the method: (§1)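 Greenhouse screen: test chemical in surfactant-containing non-phytotoxic solvent applied preemergence to sown seeds or postemergence to sugarcane plants; after 14 to 21 days each species scored visually versus controls.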

guineagrass = type: in vivo, Panicum maximum
Summary of the method: as §1

barnyardgrass = type: in vivo, Echinochloa crus-galli
Summary of the method: as §1

Virginia dayflower = type: in vivo, Commelina virginica
Summary of the method: as §1

prickly sida = type: in vivo, Sida spinosa
Summary of the method: as §1

common mallow = type: in vivo, Malva sylvestris
Summary of the method: as §1

dallisgrass = type: in vivo, Paspalum dilatatum
Summary of the method: as §1

bermudagrass = type: in vivo, Cynodon dactylon
Summary of the method: as §1

annual bluegrass = type: in vivo, Poa annua
Summary of the method: as §1

common groundsel = type: in vivo, Senecio vulgaris
Summary of the method: as §1

common chickweed = type: in vivo, Stellaria media
Summary of the method: as §1

naked crabgrass = type: in vivo, Digitaria nuda
Summary of the method: as §1

quackgrass = type: in vivo, Elytrigia repens
Summary of the method: as §1

broadleaf signalgrass = type: in vivo, Brachiaria platyphylla
Summary of the method: as §1

mustard = type: in vivo, Brassica nigra
Summary of the method: as §1

kochia = type: in vivo, Kochia scoparia
Summary of the method: as §1

Canada horseweed = type: in vivo, Conyza canadensis
Summary of the method: as §1

purple nutsedge = type: in vivo, Cyperus rotundus
Summary of the method: as §1

common purslane = type: in vivo, Portulaca oleracea
Summary of the method: as §1

Cn1nc(C(F)(F)F)c(C[S+]([O-])c2cccc[n+]2[O-])c1Cl (stereo not drawn) [Compound 8]
95: Barnyardgrass plant response rating (barnyardgrass; 62 g ai/ha, Preemergence) | Chickweed plant response rating (common chickweed; 62 g ai/ha, Preemergence) | Black Mustard plant response rating (mustard; 125 g ai/ha, preemergence)
80: Plant response rating, Barnyardgrass (barnyardgrass; Preemergence, 31 g ai/ha) | Mallow plant response rating (common mallow; 125 g ai/ha, preemergence) | Dallisgrass plant response rating (dallisgrass; 62 g ai/ha, Preemergence) | Groundsel plant response rating (common groundsel; 125 g ai/ha, preemergence) | Black Mustard plant response rating (mustard; 62 g ai/ha, Preemergence)
20: Plant response rating, Prickly Sida (prickly sida; Preemergence, 16 g ai/ha) | Plant response rating, Prickly Sida (prickly sida; Preemergence, 31 g ai/ha) | Plant response rating, Dallisgrass (dallisgrass; Preemergence, 31 g ai/ha) | Purslane plant response rating (common purslane; 125 g ai/ha, preemergence)
30: Plant response rating, Mallow (common mallow; Preemergence, 16 g ai/ha) | Plant response rating, Mallow (common mallow; Preemergence, 31 g ai/ha)
90: Prickly Sida plant response rating (prickly sida; 125 g ai/ha, preemergence) | Bermudagrass plant response rating (bermudagrass; 125 g ai/ha, preemergence) | Crabgrass, Naked plant response rating (naked crabgrass; 62 g ai/ha, Preemergence)
98: Guineagrass plant response rating (guineagrass; 62 g ai/ha, Preemergence) | Dallisgrass plant response rating (dallisgrass; 125 g ai/ha, preemergence) | Chickweed plant response rating (common chickweed; 125 g ai/ha, preemergence)
15: Plant response rating, Bermudagrass (bermudagrass; Preemergence, 31 g ai/ha) | Purslane plant response rating (common purslane; 62 g ai/ha, Preemergence)
40: Quackgrass plant response rating (quackgrass; 62 g ai/ha, Preemergence)
70: Plant response rating, Barnyardgrass (barnyardgrass; Preemergence, 16 g ai/ha) | Prickly Sida plant response rating (prickly sida; 62 g ai/ha, Preemergence) | Bluegrass plant response rating (annual bluegrass; 125 g ai/ha, preemergence) | Quackgrass plant response rating (quackgrass; 125 g ai/ha, preemergence) | Plant response rating, Black Mustard (mustard; Preemergence, 31 g ai/ha)
50: Purple Nutsedge plant response rating (purple nutsedge; 62 g ai/ha, Preemergence)
35: Morningglory plant response rating (pitted morningglory; 125 g ai/ha, preemergence) | Plant response rating, Guineagrass (guineagrass; Preemergence, 16 g ai/ha)
60: Plant response rating, Guineagrass (guineagrass; Preemergence, 31 g ai/ha) | Mallow plant response rating (common mallow; 62 g ai/ha, Preemergence) | Plant response rating, Chickweed (common chickweed; Preemergence, 31 g ai/ha) | Plant response rating, Crabgrass, Naked (naked crabgrass; Preemergence, 16 g ai/ha)
75: Dayflower plant response rating (Virginia dayflower; 125 g ai/ha, preemergence) | Bermudagrass plant response rating (bermudagrass; 62 g ai/ha, Preemergence) | Plant response rating, Crabgrass, Naked (naked crabgrass; Preemergence, 31 g ai/ha) | Signalgrass plant response rating (broadleaf signalgrass; 62 g ai/ha, Preemergence)
85: Signalgrass plant response rating (broadleaf signalgrass; 125 g ai/ha, preemergence)
65: Groundsel plant response rating (common groundsel; 62 g ai/ha, Preemergence) | Plant response rating, Signalgrass (broadleaf signalgrass; Preemergence, 31 g ai/ha) | Purple Nutsedge plant response rating (purple nutsedge; 125 g ai/ha, preemergence)
100: Guineagrass plant response rating (guineagrass; 125 g ai/ha, preemergence) | Barnyardgrass plant response rating (barnyardgrass; 125 g ai/ha, preemergence) | Crabgrass, Naked plant response rating (naked crabgrass; 125 g ai/ha, preemergence) | Kochia plant response rating (kochia; 125 g ai/ha, preemergence) | Horseweed plant response rating (Canada horseweed; 62 g ai/ha, Preemergence) | Horseweed plant response rating (Canada horseweed; 125 g ai/ha, preemergence)
0: Morningglory plant response rating (pitted morningglory; 62 g ai/ha, Preemergence) | Plant response rating, Morningglory (pitted morningglory; Preemergence, 16 g ai/ha) | Plant response rating, Morningglory (pitted morningglory; Preemergence, 31 g ai/ha) | Dayflower plant response rating (Virginia dayflower; 62 g ai/ha, Preemergence) | Plant response rating, Dayflower (Virginia dayflower; Preemergence, 16 g ai/ha) | Plant response rating, Dayflower (Virginia dayflower; Preemergence, 31 g ai/ha) | Plant response rating, Dallisgrass (dallisgrass; Preemergence, 16 g ai/ha) | Plant response rating, Bermudagrass (bermudagrass; Preemergence, 16 g ai/ha) | Bluegrass plant response rating (annual bluegrass; 62 g ai/ha, Preemergence) | Plant response rating, Bluegrass (annual bluegrass; Preemergence, 16 g ai/ha) | Plant response rating, Bluegrass (annual bluegrass; Preemergence, 31 g ai/ha) | Plant response rating, Groundsel (common groundsel; Preemergence, 16 g ai/ha) | Plant response rating, Groundsel (common groundsel; Preemergence, 31 g ai/ha) | Plant response rating, Chickweed (common chickweed; Preemergence, 16 g ai/ha) | Plant response rating, Quackgrass (quackgrass; Preemergence, 16 g ai/ha) | Plant response rating, Quackgrass (quackgrass; Preemergence, 31 g ai/ha) | Plant response rating, Black Mustard (mustard; Preemergence, 16 g ai/ha) | Kochia plant response rating (kochia; 62 g ai/ha, Preemergence) | Plant response rating, Kochia (kochia; Preemergence, 16 g ai/ha) | Plant response rating, Kochia (kochia; Preemergence, 31 g ai/ha) | Plant response rating, Horseweed (Canada horseweed; Preemergence, 16 g ai/ha) | Plant response rating, Horseweed (Canada horseweed; Preemergence, 31 g ai/ha) | Plant response rating, Purple Nutsedge (purple nutsedge; Preemergence, 16 g ai/ha) | Plant response rating, Purple Nutsedge (purple nutsedge; Preemergence, 31 g ai/ha) | Plant response rating, Purslane (common purslane; Preemergence, 16 g ai/ha) | Plant response rating, Purslane (common purslane; Preemergence, 31 g ai/ha)

Reference: patent US20100298141A1, “SUBSTITUTED PYRIDINE N-OXIDE HERBICIDES” (E. I. DU PONT DE NEMOURS AND COMPANY, priority 2007, published 2010)
